From article PMC6271259, “Design, Synthesis and SAR Study of Novel Trisubstituted Pyrimidine Amide Derivatives as CCR4 Antagonists” (Molecules, 2014)

Assays:
[1] = biological target: T1, CCR4 (Homo sapiens, UniProt P51679); test: CCR4-MDC chemotaxis inhibition assay (48-well Boyden chamber, L1.2 cells transfected with pcDI-CCR4); format: cell-based; settings: for IC50: MDC 10 ng/mL, L1.2 cells transfected with pcDI-CCR4, compound preincubation 30 min at 37 °C, chamber 6 h, assayed three times, NA = no significant inhibition; for Chemotaxis inhibition activity against CCR4 (in words, compared with compound 1): CCR4-MDC chemotaxis inhibition assay, compound 1 as positive control
T1 construct: expressed in transfected cells; host or cells: L1.2 cells transfected with pcDI-CCR4
T1 sequence (P51679 1-360): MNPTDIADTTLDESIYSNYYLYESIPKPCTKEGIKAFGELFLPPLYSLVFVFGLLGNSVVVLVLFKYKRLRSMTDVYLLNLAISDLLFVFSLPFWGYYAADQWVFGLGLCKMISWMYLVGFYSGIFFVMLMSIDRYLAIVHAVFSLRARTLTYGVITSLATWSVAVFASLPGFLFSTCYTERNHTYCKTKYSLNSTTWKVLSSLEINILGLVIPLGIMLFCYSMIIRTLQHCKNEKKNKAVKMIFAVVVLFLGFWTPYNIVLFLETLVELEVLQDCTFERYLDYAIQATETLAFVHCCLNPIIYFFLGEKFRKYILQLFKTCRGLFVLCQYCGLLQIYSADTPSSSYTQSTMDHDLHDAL
Description: All the newly synthesized compounds were evaluated by a CCR4-MDC chemotaxis inhibition assay. Compound 1 was employed as the positive control.
The quantitative chemotaxis assays were performed using 48-well Boyden chambers (Neutroprobe, Bethesda, MD, USA) with polyvinylpyrrolidone-free polycarbonate filters with 5 μm pores. The MDC (Peprotech, Rocky Hill, NJ, USA) with a final concentration of 10 ng/mL was added into the lower wells. The L1.2 cells that were transfected with pcDI-CCR4 were suspended in assay buffer at 3 × 10^6 cells/mL, incubated with various final concentrations of compounds for 30 min at 37 °C, and then added to the upper wells. The chamber was incubated for 6 h at 37 °C in an atmosphere containing 5% CO2, and then the upper chambers were removed. The chemotaxis buffer in the lower wells was then harvested and mixed with 25 μL of the luciferase-containing reagent, Cell-Titer Glo. The number of L1.2 cells in the lower well medium was measured with a Veritas Microplate Luminometer (Turner BioSystems, Sunnyvale, CA, USA). All samples were assayed three times. The negative control samples and solvent control samples were defined as the cells migrating toward the lower wells in the absence of chemokine, and as the cells migrating toward the MDC-containing lower wells in the absence of compound in the presence of DMSO, respectively. The percentage of inhibition was determined by the following equation: inhibition = (C − A)/(C − B) × 100%, where A indicates the number of cells in the sample, B indicates the number of cells in the negative control sample and C indicates the number of cells in the solvent control sample. The results are expressed as an IC50 value (sample concentration that inhibits 50% chemotaxis) and calculated using Origin 8.0 software.

[2] = system: CCR4-positive cells; set-up: method as in earlier work; settings: migration induced by MDC, TARC, and CKLF1; cited from earlier work

SMILES	IC50 [1] [nM]	Chemotaxis inhibition activity against CCR4 (in words, compared with compound 1) [1]	melting point [°C]	Inhibition of migration of CCR4-positive cells [2]
O=C([C@H]1CCCCN1)N1CCN(c2nc(Cl)cc(NCc3ccc(Cl)cc3Cl)n2)CC1 [Compound 1]	78 ± 13	–	–	inhibit the migration of CCR4-positive cells
O=C(c1ccccn1)N1CCN(c2nc(Cl)cc(NCc3ccc(Cl)cc3Cl)n2)CC1 [Compound 6a, 6-Chloro-2-[4-(pyridin-2-yl)carbonylpiperazino]-N-(2,4-dichlorobenzyl)pyrimidin-4-amine]	–	did not result in significant inhibition activity	–	–
O=C(C1CCCCC1)N1CCN(c2nc(Cl)cc(NCc3ccc(Cl)cc3Cl)n2)CC1 [Compound 6b, 6-Chloro-2-(4-cyclohexylcarbonylpiperazino)-N-(2,4-dichlorobenzyl)pyrimidin-4-amine]	–	did not result in significant inhibition activity	175.3 to 177.1	–
CN(C)CC(=O)N1CCN(c2nc(Cl)cc(NCc3ccc(Cl)cc3Cl)n2)CC1 [Compound 6c, 6-Chloro-2-[4-(N,N-dimethylaminomethyl)carbonylpiperazino]-N-(2,4-dichlorobenzyl)pyrimidin-4-amine]	64 ± 15	–	166.5 to 168.5	–
O=C([C@H]1CCCCN1)N1CCN(c2nc(Cl)cc(NCc3ccc(Cl)cc3)n2)CC1 [Compound 6d, (R)-6-Chloro-2-[4-(piperidin-2-yl)carbonylpiperazino]-N-(4-chlorobenzyl)pyrimidin-4-amine]	458 ± 51	significantly reduced activity	–	–
O=C([C@H]1CCCCN1)N1CCN(c2nc(Cl)cc(NCc3ccc(F)cc3F)n2)CC1 [Compound 6e]	94 ± 17	slightly reduced activity	87.2 to 89	–

Now from value to compound, other results behind:

IC50 [1] [nM]	Chemotaxis inhibition activity against CCR4 (in words, compared with compound 1) [1]	melting point [°C]	SMILES	Inhibition of migration of CCR4-positive cells [2]
133 ± 21	relatively poorer activity	–	O=C([C@H]1CCCCN1)N1CCN(c2nc(NCc3ccc(Cl)cc3Cl)cc(N3CCCCC3)n2)CC1 [Compound 7a, (R)-2-[4-(Piperidin-2-yl)carbonylpiperazino]-N-(2,4-dichlorobenzyl)-6-piperidino pyrimidin-4-amine]	–
395 ± 66	relatively poorer activity	167.8 to 169.5	O=C([C@H]1CCCCN1)N1CCN(c2nc(NCc3ccc(Cl)cc3Cl)cc(N3CCOCC3)n2)CC1 [Compound 7b, (R)-2-[4-(Piperidin-2-yl)carbonylpiperazino]-N-(2,4-dichlorobenzyl)-6-morpholino pyrimidin-4-amine]	–
77 ± 13	–	82.6 to 84.5	Cc1cc(NCc2ccc(Cl)cc2Cl)nc(N2CCN(C(=O)[C@H]3CCCCN3)CC2)n1 [Compound 12a, (R)-2-[4-(Piperidin-2-yl)carbonylpiperazino]-N-(2,4-dichlorobenzyl)-6-methylpyrimidin-4-amine]	–
69 ± 15	–	–	Cc1cc(NCc2ccc(Cl)cc2Cl)nc(N2CCN(C(=O)CN(C)C)CC2)n1 [Compound 12b, 2-[4-(N,N-dimethylaminomethyl)carbonylpiperazino]-N-(2,4-dichlorobenzyl)-6-methyl pyrimidin-4-amine]	–
178 ± 28	relatively weak activity	146.4 to 148	Cc1cc(NCc2ccc(Cl)cc2Cl)nc(N2CCN(C(=O)C3CCN(C)CC3)CC2)n1 [Compound 12c, 2-[4-(N-methylpiperidin-4-yl)carbonylpiperazino]-N-(2,4-dichlorobenzyl)-6-methylpyrimidin-4-amine]	–
235 ± 45	relatively weak activity	124.3 to 125.8	Cc1cc(NCc2ccc(Cl)cc2Cl)nc(N2CCN(C(=O)[C@H]3CCCO3)CC2)n1 [Compound 12d, (R)-2-[4-(Tetrahydrofuran-2-yl)carbonylpiperazino]-N-(2,4-dichlorobenzyl)-6-methylpyrimidin-4-amine]	–
